This experiment has as its system A2 molecules. The experiment is classed as binding, human.

As for “M L L A V L Y C L (SEQ ID NO: 5) [tyrosinase 1-9]”, the “binding affinity for A2 molecules” value is on record as “significantly lower affinity”.
